Experimental data reported in publication PMC11061149, “Protein mimetic 2D FAST rescues alpha synuclein aggregation mediated early and post disease Parkinson’s phenotypes” (Nature Communications, 2024).
“And” between values parts separate entries of the source, which are not always exact repeats. Identical values can stand only once.

Tests used:
Assay type in all cases: biochemical
[1] = molecular target: T1, αS fibers (Homo sapiens, UniProt P37840); test: Transmission electron microscopy (TEM) of αS solutions; settings: 100 µM αS aggregated for four days with ligand
T1 construct: made in house; host or cells: E. coli BL21(DE3)
Description: Transmission Electron Microscopy was used to visualize protein assemblies after aggregation experiments as previously described. Briefly, aliquots (5 μL) of αS solutions (with or without ligands) were applied on glow-discharged carbon-coated 300-mesh copper grids for 2 min and dried using Kimwipes (Kimberly-Clark, Irving, TX). The copper grids were negatively stained for 1 min with uranyl acetate (0.75%, w/v). The micrographs were taken on an FEI Tecnai G2 Biotwin TEM at 80 kV accelerating voltages.

[2] = molecular target: T2, αS aggregation (Homo sapiens, UniProt P37840); test: SDS-PAGE gel shift assay of soluble and insoluble αS fractions; settings: for αS band intensity, Total: individual trials
T2 construct: made in house; host or cells: E. coli BL21(DE3)
Text: The inhibition of αS aggregation by NS41 was also confirmed by TEM images, which show an abundance (Supplementary Fig. 3a) and low amount (Supplementary Fig. 3b) of αS fibers in the absence and presence of NS41, respectively. We used SDS-PAGE (Sodium dodecyl sulfate polyacrylamide gel electrophoresis) as a complementary assay to validate ThT results and to further characterize the antagonist activity of the monopyridyls against αS aggregation. We used a total of four monopyridyls with varying antagonist activity against αS aggregation for the SDS-PAGE assay. The solutions of αS (±monopyridyls) were centrifuged and the soluble and insoluble fractions were subjected to SDS-PAGE analysis as reported earlier (Fig. 2d, Supplementary Fig. 4a, see details in methods section). The band intensities of the gels in SDS-PAGE assay were quantified using ImageJ software. In the absence of ligands, ~12% of αS was found in the soluble fraction and the rest was found in the insoluble fraction (Fig. 2d, Supplementary Fig. 4a, b). In the presence of NS41 at molar ratios of 1:1 and 2:1 (NS41:αS), 48% and 73% of αS protein were found in the soluble fraction, respectively, and the rest of αS protein was found in the insoluble fraction (Fig. 2d, Supplementary Fig. 4a, b). […] The antagonist activity of the monopyridyls corroborated well from both ThT and the SDS-PAGE assays (Fig. 2a–d, Supplementary Fig. 4a, b). The higher the antagonist activity of monopyridyls against αS aggregation, the lower the ThT intensity and the higher the amount of αS remained in the soluble fraction (Fig. 2a–d, Supplementary Fig. 4a, b). […] It is important to note that NS41 contains a carboxyl (COOH) functional group side chain. […] We have also shown in that work that the foldamer binds to the N-terminus of αS because of its negatively charged COOH functional group interaction with the positively charged lysine residues of αS[24]. […] Additionally, we have also shown that the OPs with the COOH functional group are very effective inhibitors of aggregation of other amyloid proteins that contain lysine amino acid via the formation of salt bridges[30]–[34].
An αS solution (100 µM) was prepared in PBS with or without ligands and shaken ([…], 37 °C) until the fluorescence plateaued, as observed using the ThT aggregation assay, indicative of the aggregation of αS as a control (four days for most experiments unless otherwise mentioned). The solutions were separated into soluble and insoluble fractions by centrifugation at 22,000 × g for 20 min. The fractions were diluted in 2×Laemmli protein sample loading buffer (Containing 2.1% SDS, Bio-rad, Hercules, CA), boiled at 95 °C for 5 min, and ran on a 12% Mini-PROTEAN precast protein gel (Bio-rad, Hercules, CA). The gel was visualized using ChemiDoc MP Imaging System (Bio-rad, Hercules, CA) and band intensity was quantified using Image Lab image acquisition and analysis software (Bio-rad, Hercules, CA). Densitometry values were averaged from three technical replicates and reported with the error bars representing their standard deviations.

[3] = molecular target: T3, α-Synuclein (αS) aggregation (Homo sapiens, UniProt P37840); test: Thioflavin T (ThT) dye-based αS aggregation assay (de novo); settings: for ThT intensity relative to Synuclein alone (=1), Average / ThT intensity relative to Synuclein alone (=1), Trial 1-3: 100 µM αS, four days; for remaining activity at 100 µM: 96 h, pH 6.5, 100 μM αS, 1×PBS pH 6.5, four days, ligand:αS equimolar, read-out: ThT signal/intensity relative to αS alone (100%)
T3 construct: made in house; host or cells: E. coli BL21(DE3)
Description: We used a 2D FAST approach in OPs to identify potent antagonists of the aggregation of αS. In this approach, we start with a library of monopyridyls with different functional groups. The library of monopyridyls was synthesized using 2-chloro-6-methyl-3-nitropyridine as a common precursor, which was treated with primary alcohols with diverse side chain functionalities via a one-pot reaction (Fig. 1B, a and see Supplementary information for synthetic details). […] We selected the side chains containing hydrophobic, polar, positively charged, and negatively charged functional groups, which mimic the side chains of the amino acids (Fig. 1C). […] The monopyridyl library was screened against the aggregation of 100 μM αS at an equimolar ratio using Thioflavin T (ThT) dye-based aggregation assay (Fig. 1B, b). […] The chloro-dipyridyl was reacted with a library of primary amines/thiols to synthesize a library of dipyridyls (Fig. 1B, e) using a one-pot reaction. […] However, a few dipyridyls required column chromatography to separate them from the starting material side chains because of their very high boiling point (7 out of 21 dipyridyls required column, Supplementary Fig. 1). […]
Aggregation Kinetics were measured according to a previously described protocol. […] The solutions were placed in a ThermoMixer (Eppendorf, Hamberg, Germany) at 37 °C with constant shaking at 1300 rpm (rpm). At different time points, 5 μL aliquots of each αS solution were added to 95 μL PBS containing 50 μM Thioflavin T (ThT) dye in a Costar black 96 well plate (Corning Inc., Kennebunk, ME). ThT fluorescence intensity was measured (λex = 450 nm and λem = 490 nm) on an Infinite M200PRO plate reader (Tecan, Männedorf, Switzerland), and plotted against time to give a sigmoidal curve typical of amyloid aggregation. For the single point ThT aggregation, 100 μM αS, in the absence and presence of ligands, was aggregated under the described conditions and the ThT fluorescence was reported at 96 h. The reported ThT intensity values are the average of each experiment conducted in triplicate, with the error bars representing the standard deviations or standard error of the mean (s.e.m.) as described in the main manuscript.

Cc1ccc([N+](=O)[O-])c(OCC(=O)O)n1 [NS41]
αS fibers seen in TEM images, in words [1]: low amount | αS protein found in the soluble fraction ([2]; 100 µM αS, four days, NS41:αS 2:1): 73% | αS protein found in the soluble fraction ([2]; 100 µM αS, four days, ligand:αS 1:1): 48% | αS band intensity, Total, Average ([2]; sheet S4B, ligand 1 eq.): 100 | αS band intensity, Total ([2]; sheet S4B, ligand 1 eq.): 95 and 102.5 (2×) | αS band intensity, Total, Average ([2]; sheet S4B, ligand 2 eq.): 100 | αS band intensity, Total ([2]; sheet S4B, ligand 2 eq.): 96 and 102 (2×) | ThT signal relative to αS alone (100%) ([3]; 100 μM αS, 1×PBS pH 6.5, NS41/αS 2:1): 17% | ThT intensity relative to Synuclein alone (=1), Average ([3]; equimolar): 0.2889 | ThT intensity relative to Synuclein alone (=1), Trial 1-3 ([3]; equimolar, individual trials): 0.2946 and 0.2756 and 0.2964 | ThT intensity relative to Synuclein alone (=1), Average ([3]; ligand 2 mole Eq.): 0.162 | ThT intensity relative to Synuclein alone (=1), Trial 1-3 ([3]; ligand 2 mole Eq., individual trials): 0.1784 and 0.1666 and 0.1411 | remaining activity at 100 µM [3]: 29%

Cc1ccc(NC(=O)c2ccc([N+](=O)[O-])c(NCC3CCCCC3)n2)c(OCC(=O)O)n1 [NS55]
αS fibers seen in TEM images, in words [1]: no | amount of αS in the insoluble fraction ([2]; 100 µM αS, four days, equimolar): 26% | αS band intensity, Total, Average ([2]; sheet S5B): 100 | αS band intensity, Total ([2]; sheet S5B): 95.6 and 105.4 and 99 | distribution of αS between soluble and insoluble fraction, in words ([2]; substoichiometric ratio αS:ligand 1:0.5): a significant amount of αS protein was found in the insoluble form | ThT fluorescence intensity, Average ([3]; 100 µM αS + equimolar ligand, aggregation profile Fig. 2h, time 0 hr): 638.333 | attenuation of the ThT signal of αS aggregation ([3]; 100 μM αS, equimolar): 96% | ThT intensity relative to Synuclein alone (=1), Average ([3]; equimolar): 0.04101 | ThT intensity relative to Synuclein alone (=1), Trial 1-3 ([3]; equimolar, individual trials): 0.05227 and 0.03887 and 0.03187 | ThT intensity relative to Synuclein alone (=1), Average ([3]; substoichiometric αS:ligand 1:0.5): 0.7474 | ThT intensity relative to Synuclein alone (=1), Trial 1-3 ([3]; substoichiometric αS:ligand 1:0.5, individual trials): 0.775 and 0.733 and 0.7343 | remaining activity at 100 µM [3]: 4% | ThT fluorescence intensity, Average ([3]; Fig. 2h profile, time 12 hr): 699.667 | ThT fluorescence intensity, Average ([3]; Fig. 2h profile, time 24 hr): 689.333 | ThT fluorescence intensity, Average ([3]; Fig. 2h profile, time 48 hr): 722.667 | ThT fluorescence intensity, Average ([3]; Fig. 2h profile, time 72 hr): 793 | ThT fluorescence intensity, Average ([3]; Fig. 2h profile, time 96 hr): 631.333 | ThT fluorescence intensity, Average ([3]; Fig. 2h profile, time 144 hr): 658.333 | ThT fluorescence intensity, Average ([3]; Fig. 2h profile, time 192 hr): 603.333 | ThT fluorescence intensity, Average ([3]; Fig. 2h profile, time 300 hr): 570.333 | Relative ThT intensity of αS aggregation, Average ([3]; sheet S5A, Synuclein alone about 1): 0.04101 | Relative ThT intensity of αS aggregation ([3]; sheet S5A, Synuclein alone about 1, individual trials): 0.05227 and 0.03887 and 0.03187
